Results: patent US20230085307A1, “PYRIDAZINONE COMPOUND AND HERBICIDE” (NISSAN CHEMICAL CORPORATION, priority 2019, published 2023)

Tests used:
[1] = tested on: persian speedwell; assay: Test Example 4: herbicidal effect by soil treatment (Table 19, symbol R); type: in vivo, Persian speedwell (Veronica persica); settings: AAH 80 g/ha
Summary of the method: (§1)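 Emulsion of test compound, water-diluted to predetermined amount, sprayed on soil after sowing (seed depth ~1.5 cm, sterilized diluvial soil). Greenhouse, 25–30° C. Effect graded at three weeks post-spray.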

[2] = tested on: wild oat; assay: Test Example 5: herbicidal effect by foliage application, plastic box (Table 20, symbol I); type: in vivo, wild oat (Avena fatua); settings: foliage application, AAH 80 g/ha, three weeks after application
Summary of the method: (§2)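 Post-emergence foliar test in sterilized diluvial soil. Compound applied as water-diluted emulsion at a predetermined rate to 14-day-old plants; evaluation at three weeks.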

[3] = tested on: lambsquarters; assay: Test Example 4: herbicidal effect by soil treatment (Table 19, symbol O); type: in vivo, lambsquarters (Chenopodium album); settings: AAH 80 g/ha
Summary of the method: as §1

[4] = tested on: barnyard grass; assay: Test Example 3: herbicidal effect by foliage application, Wagner pot (Table 18, symbol H); type: in vivo, barnyard grass (Echinochloa crus-galli); settings: 80 g/ha
Summary of the method: (§3)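 Plants were sown in alluvial soil held under 0.1–0.5 cm standing water and grown 14 days in a greenhouse at 25–30 °C. An emulsifiable formulation, water-diluted to the set dose, was then sprayed onto the foliage, and effects were scored three weeks later using previously defined criteria.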

[5] = tested on: rice flat sedge; assay: Test Example 3: herbicidal effect by foliage application, Wagner pot (Table 18, symbol E); type: in vivo, rice flat sedge (Cyperus iria); settings: 80 g/ha
Summary of the method: as §3

[6] = tested on: lambsquarters; assay: Test Example 5: herbicidal effect by foliage application, plastic box (Table 20, symbol O); type: in vivo, lambsquarters (Chenopodium album); settings: foliage application, AAH 80 g/ha, three weeks after application
Summary of the method: as §2

[7] = tested on: velvetleaf; assay: Test Example 4: herbicidal effect by soil treatment (Table 19, symbol M); type: in vivo, velvetleaf (Abutilon theophrasti); settings: AAH 80 g/ha
Summary of the method: as §1

[8] = tested on: persian speedwell; assay: Test Example 5: herbicidal effect by foliage application, plastic box (Table 20, symbol R); type: in vivo, Persian speedwell (Veronica persica); settings: foliage application, AAH 80 g/ha, three weeks after application
Summary of the method: as §2

[9] = tested on: Italian ryegrass; assay: Test Example 4: herbicidal effect by soil treatment (Table 19, symbol K); type: in vivo, Italian ryegrass (Lolium multiflorum); settings: AAH 80 g/ha
Summary of the method: as §1

[10] = tested on: southern crabgrass; assay: Test Example 4: herbicidal effect by soil treatment (Table 19, symbol F); type: in vivo, southern crabgrass (Digitaria ciliaris); settings: AAH 80 g/ha
Summary of the method: as §1

[11] = tested on: blackgrass; assay: Test Example 4: herbicidal effect by soil treatment (Table 19, symbol J); type: in vivo, blackgrass (Alopecurus myosuroides); settings: AAH 80 g/ha
Summary of the method: as §1

[12] = tested on: green foxtail; assay: Test Example 4: herbicidal effect by soil treatment (Table 19, symbol G); type: in vivo, green foxtail (Setaria viridis); settings: AAH 80 g/ha
Summary of the method: as §1

[13] = tested on: Italian ryegrass; assay: Test Example 5: herbicidal effect by foliage application, plastic box (Table 20, symbol K); type: in vivo, Italian ryegrass (Lolium multiflorum); settings: foliage application, AAH 80 g/ha, three weeks after application
Summary of the method: as §2

[14] = tested on: southern crabgrass; assay: Test Example 5: herbicidal effect by foliage application, plastic box (Table 20, symbol F); type: in vivo, southern crabgrass (Digitaria ciliaris); settings: foliage application, AAH 80 g/ha, three weeks after application
Summary of the method: as §2

[15] = tested on: wild oat; assay: Test Example 4: herbicidal effect by soil treatment (Table 19, symbol I); type: in vivo, wild oat (Avena fatua); settings: AAH 80 g/ha
Summary of the method: as §1

[16] = tested on: green foxtail; assay: Test Example 5: herbicidal effect by foliage application, plastic box (Table 20, symbol G); type: in vivo, green foxtail (Setaria viridis); settings: foliage application, AAH 80 g/ha, three weeks after application
Summary of the method: as §2

[17] = tested on: velvetleaf; assay: Test Example 5: herbicidal effect by foliage application, plastic box (Table 20, symbol M); type: in vivo, velvetleaf (Abutilon theophrasti); settings: foliage application, AAH 80 g/ha, three weeks after application
Summary of the method: as §2

[18] = tested on: Chinese sprangletop; assay: Test Example 3: herbicidal effect by foliage application, Wagner pot (Table 18, symbol D); type: in vivo, chinese sprangletop (Leptochloa chinensis); settings: 80 g/ha
Summary of the method: as §3

[19] = tested on: barnyard grass; assay: Test Example 5: herbicidal effect by foliage application, plastic box (Table 20, symbol H); type: in vivo, barnyard grass (Echinochloa crus-galli); settings: foliage application, AAH 80 g/ha, three weeks after application
Summary of the method: as §2

[20] = tested on: barnyard grass; assay: Test Example 4: herbicidal effect by soil treatment (Table 19, symbol H); type: in vivo, barnyard grass (Echinochloa crus-galli); settings: AAH 80 g/ha
Summary of the method: as §1

[21] = tested on: windgrass; assay: Test Example 4: herbicidal effect by soil treatment (Table 19, symbol L); type: in vivo, windgrass (Apera spica-venti); settings: AAH 80 g/ha
Summary of the method: as §1

[22] = tested on: redroot pigweed; assay: Test Example 5: herbicidal effect by foliage application, plastic box (Table 20, symbol N); type: in vivo, redroot pigweed (Amaranthus retroflexus); settings: foliage application, AAH 80 g/ha, three weeks after application
Summary of the method: as §2

[23] = tested on: windgrass; assay: Test Example 5: herbicidal effect by foliage application, plastic box (Table 20, symbol L); type: in vivo, windgrass (Apera spica-venti); settings: foliage application, AAH 80 g/ha, three weeks after application
Summary of the method: as §2

[24] = tested on: blackgrass; assay: Test Example 5: herbicidal effect by foliage application, plastic box (Table 20, symbol J); type: in vivo, blackgrass (Alopecurus myosuroides); settings: foliage application, AAH 80 g/ha, three weeks after application
Summary of the method: as §2

[25] = tested on: redroot pigweed; assay: Test Example 4: herbicidal effect by soil treatment (Table 19, symbol N); type: in vivo, redroot pigweed (Amaranthus retroflexus); settings: AAH 80 g/ha
Summary of the method: as §1

[26] = tested on: chickweed; assay: Test Example 5: herbicidal effect by foliage application, plastic box (Table 20, symbol P); type: in vivo, common chickweed (Stellaria media); settings: foliage application, AAH 80 g/ha, three weeks after application
Summary of the method: as §2

[27] = tested on: chickweed; assay: Test Example 4: herbicidal effect by soil treatment (Table 19, symbol P); type: in vivo, common chickweed (Stellaria media); settings: AAH 80 g/ha
Summary of the method: as §1

Row | SMILES | R: persian speedwell, herbicidal effect rating [1] | I: wild oat, herbicidal effect [2] | O: lambsquarters, herbicidal effect rating [3] | herbicidal effect on H (barnyard grass), rating 0-5 [4] | herbicidal effect on E (rice flat sedge), rating 0-5 [5] | O: lambsquarters, herbicidal effect [6] | M: velvetleaf, herbicidal effect rating [7] | R: persian speedwell, herbicidal effect [8] | K: Italian ryegrass, herbicidal effect rating [9] | F: southern crabgrass, herbicidal effect rating [10] | J: blackgrass, herbicidal effect rating [11] | G: green foxtail, herbicidal effect rating [12] | K: Italian ryegrass, herbicidal effect [13] | F: southern crabgrass, herbicidal effect [14] | I: wild oat, herbicidal effect rating [15] | G: green foxtail, herbicidal effect [16] | M: velvetleaf, herbicidal effect [17] | herbicidal effect on D (Chinese sprangletop), rating 0-5 [18] | H: barnyard grass, herbicidal effect [19] | H: barnyard grass, herbicidal effect rating [20] | further results
1 | COc1nn(C)c(=O)c(-c2c(-c3ccc(OC(F)(F)F)cc3)sc3ccccc23)c1O [1-162] | 0 (Herbicidal rate of 5% or less (almost no effect)) | 0 (Herbicidal rate of 5% or less (almost no effect)) | 4 (Herbicidal rate of 70% or more and less than 90%) | 4 (Herbicidal rate of 70% or more and less than 90%) | 5 (Herbicidal rate of 90% or more (almost completely withered)) | 3 (Herbicidal rate of 40% or more and less than 70%) | 0 (Herbicidal rate of 5% or less (almost no effect)) | 5 (Herbicidal rate of 90% or more (almost completely withered)) | 0 (Herbicidal rate of 5% or less (almost no effect)) | 0 (Herbicidal rate of 5% or less (almost no effect)) | 0 (Herbicidal rate of 5% or less (almost no effect)) | 0 (Herbicidal rate of 5% or less (almost no effect)) | 0 (Herbicidal rate of 5% or less (almost no effect)) | 0 (Herbicidal rate of 5% or less (almost no effect)) | 0 (Herbicidal rate of 5% or less (almost no effect)) | 0 (Herbicidal rate of 5% or less (almost no effect)) | 3 (Herbicidal rate of 40% or more and less than 70%) | 3 (Herbicidal rate of 40% or more and less than 70%) | 0 (Herbicidal rate of 5% or less (almost no effect)) | 0 (Herbicidal rate of 5% or less (almost no effect)) | L: windgrass, herbicidal effect rating [21]: 0 (Herbicidal rate of 5% or less (almost no effect)); N: redroot pigweed, herbicidal effect [22]: 4 (Herbicidal rate of 70% or more and less than 90%); L: windgrass, herbicidal effect [23]: 0 (Herbicidal rate of 5% or less (almost no effect)); J: blackgrass, herbicidal effect [24]: 0 (Herbicidal rate of 5% or less (almost no effect)); N: redroot pigweed, herbicidal effect rating [25]: 1 (Herbicidal rate of 5% or more and less than 20%); P: chickweed, herbicidal effect [26]: 5 (Herbicidal rate of 90% or more (almost completely withered)); P: chickweed, herbicidal effect rating [27]: 2 (Herbicidal rate of 20% or more and less than 40%)
2 | COc1nn(C)c(=O)c(-c2c(-c3ccc(-c4ccccc4)cc3)sc3ccccc23)c1O [1-166] | 1 (Herbicidal rate of 5% or more and less than 20%) | 0 (Herbicidal rate of 5% or less (almost no effect)) | 0 (Herbicidal rate of 5% or less (almost no effect)) | 4 (Herbicidal rate of 70% or more and less than 90%) | 5 (Herbicidal rate of 90% or more (almost completely withered)) | 2 (Herbicidal rate of 20% or more and less than 40%) | 0 (Herbicidal rate of 5% or less (almost no effect)) | 5 (Herbicidal rate of 90% or more (almost completely withered)) | 0 (Herbicidal rate of 5% or less (almost no effect)) | 0 (Herbicidal rate of 5% or less (almost no effect)) | 0 (Herbicidal rate of 5% or less (almost no effect)) | 0 (Herbicidal rate of 5% or less (almost no effect)) | 0 (Herbicidal rate of 5% or less (almost no effect)) | 0 (Herbicidal rate of 5% or less (almost no effect)) | 0 (Herbicidal rate of 5% or less (almost no effect)) | 0 (Herbicidal rate of 5% or less (almost no effect)) | 0 (Herbicidal rate of 5% or less (almost no effect)) | 4 (Herbicidal rate of 70% or more and less than 90%) | 0 (Herbicidal rate of 5% or less (almost no effect)) | 0 (Herbicidal rate of 5% or less (almost no effect)) | L: windgrass, herbicidal effect rating [21]: 0 (Herbicidal rate of 5% or less (almost no effect)); N: redroot pigweed, herbicidal effect [22]: 3 (Herbicidal rate of 40% or more and less than 70%); L: windgrass, herbicidal effect [23]: 0 (Herbicidal rate of 5% or less (almost no effect)); J: blackgrass, herbicidal effect [24]: 0 (Herbicidal rate of 5% or less (almost no effect)); N: redroot pigweed, herbicidal effect rating [25]: 0 (Herbicidal rate of 5% or less (almost no effect)); P: chickweed, herbicidal effect [26]: 3 (Herbicidal rate of 40% or more and less than 70%); P: chickweed, herbicidal effect rating [27]: 4 (Herbicidal rate of 70% or more and less than 90%)
